What is called Kd is the constant that tells how readily two partners part at equilibrium. By fraction unbound is commonly meant the share of the substance not bound to proteins or other matrix.

Results on four molecules are retold here after article PMC7355663, “Microscale Thermophoresis as a Screening Tool to Predict Melanin Binding of Drugs” (Pharmaceutics, 2020).

Series [1] is described as follows: Traditional melanin binding assay (equilibrium binding, Sips isotherm). The settings on record: for Target Capacity ± SE, traditional method (Sips isotherm): Bmax multiplied with 0.5 mg/mL melanin concentration of the MST assay. The procedure:
(§1) The traditional melanin binding assay was conducted with melanin from the porcine RPE-choroid. We used previously published methods for melanin isolation and drug binding. Fresh melanin suspension and test compound solutions were prepared before each experiment. The melanin suspension (in PBS, pH 7.4) was sonicated in a bath sonicator for 30 min (Elmasonic S 40 H, Elma Schmidbauer GmbH, Singen, Germany) before the experiment. The incubation with test compounds took place at 37 °C on a shaker (220 rpm), and the melanin concentration in the assay was 1 mg/mL (0.15 mg/well). In the control samples, PBS buffer (pH 7.4) was used instead of the melanin suspension. Three individual replicates were made for each experiment. After 20 h incubation, the samples were centrifuged at 20,000× g for 20 min, and supernatant containing the unbound ligand was collected for analysis.
(§2) Samples having an estimated concentration of 0.5 µM or higher were analyzed with ultra-high pressure liquid chromatography (UPLC) (Acquity UPLC, Waters, Milford, MA, USA) with UV detection (Photodiode Array Detector, Waters, MA, USA). The separation was carried out on a Luna Omega Polar C18 (1.6 μm, 2.1 × 50 mm^2) column (Phenomenex) at 30 °C. Injection volume was 4 µL. Gradient mode was used for all the compounds with an acetonitrile/15 mM phosphate buffer (pH 2) mobile phase. Gradient duration was 3−5 min depending on the sample (levofloxacin, terazosin, and papaverine).
(§3) All internal standards, namely levofloxacin D8, terazosin D8, and papaverine D3, were purchased from Toronto Research Chemicals (Toronto, ON, Canada). […] Injection volumes were 0.2 μL for terazosin, 0.3 µL for levofloxacin, and 0.15 µl for papaverine with a flow through needle injection system. The mobile phase consisted of 0.1% formic acid (Merck, Darmstadt, Germany) in ultrapure water (A) and 100% LC–MS grade acetonitrile (Honeywell, Seelze, Germany) (B). […] The gradient for levofloxacin was the same as for papaverine, but the total run time was 6 min. The flow rate was 0.3 mL/min for all the compounds.
(§4) Mass spectrometric measurements were carried out using a Waters Xevo TQ-S triple quadruple mass spectrometer coupled with an electrospray ionization (ESI) on a positive mode for all three compounds. Optimized MS-parameters were as follows: capillary 1.5 kV (terazosin and papaverine), 3.5 kV (levofloxacin), cone voltage 80 V (terazosin) and 8 V (terazosin D8), 22 V (papaverine and papaverine D3), 28 V (levofloxacin and levofloxacin D8), source temperature 150 °C, and desolvation temperature 500 °C (terazosin) or 450 °C (papaverine and levofloxacin). Nitrogen (AGA, Helsinki, Finland) was used as the desolvation gas (1000 L·h^−1 terazosin, 800 L·h^−1 papaverine and levofloxacin) and the cone gas (150 L·h^−1), argon (AGA, Helsinki, Finland) as the collision gas. Multiple reaction monitoring (MRM) mode was employed for quantification. […] The resulting data were analyzed with Waters MassLynx V4.1 software. To consider the effect of melanin on the analyses, separate samples containing only melanin in PBS (with no test compound) were also studied.
(§5) The binding parameters were determined with Sips isotherm (Equation (2)) as described by Manzanares et al.. B = (Bmax × [L]^n)/(Kd^n + [L]^n)(2) where B is the amount of bound drug (nmol·mg^−^1); Bmax is the maximum binding capacity (nmol·mg^−^1); [L] is the free drug concentration (µM); n is the heterogeneity index (assuming heterogeneity of the surface of the melanin particles); and Kd represents the dissociation constant (µM).

For series [2], the system named is melanin. Kind of series: in vitro. To be noted: pig, pH 7.4. The protocol:
as §1, §2, §3, §4, §5

A short description of series [3]: Label-free microscale thermophoresis (MST) melanin binding assay. The settings on record: Table S2; 80% excitation power; read-out: Kd, initial fluorescence mode.
Assay in series [4]: as above
The procedure: Synthetic melanin was purchased from Sigma Aldrich (#M8631-100 mg). Melanin nanoparticles were prepared as described earlier by Fan et al., and low-binding pipette tips (Maxymum RecoveryTM pipet tips, Corning Incorporated, Salt Lake City, UT, USA) and tubes (No stick microtubes, Alpha Laboratories, Hampshire, UK) were used with both melanin and melanin nanoparticles. Briefly, melanin was dissolved into 1 N NaOH with a concentration of 2 mg/mL and stirred by vortexing. The solution was neutralized by adding an equal volume of 1 N HCl. […] After the final centrifugation, the resulting nanoparticles were suspended into a small volume of sterile water and freeze-dried for 48–72 h (ModulyoD-230, Thermo Savant, Holbrook, NY, USA), and stored at −20 °C until the binding assays.
Melanin binding of each of the 13 model compounds was determined (for the concentrations in the assay, see Table 1). The dilution series of drugs were prepared onto a PCR plate (4titude PCR Plate, Skirted, #4ti-0740, Brooks Life Sciences, Chelmsford, MA, USA) in phosphate buffered saline (PBS, pH 7.4). […] The compound dilutions (10 µL) were transferred into 0.2 mL PCR tube strips (#TBS0201, Bio-Rad Laboratories, Inc., Hercules, CA, USA), and an equal volume of 1 mg/mL melanin nanoparticle dilution was added, resulting in a final melanin concentration of 0.5 mg/mL. At least three biological replicates (individually incubated dilution series) were prepared for each compound (n = 3–5). A reference sample containing only melanin nanoparticles and PBS (pH 7.4) was included in each assay to determine the unbound state in the thermophoresis experiment. Melanin nanoparticles were incubated with the compounds at room temperature for at least 2 h.
After >2 h incubation, the melanin–ligand complexes were mixed gently with a pipette to ensure melanin solution homogeneity and then transferred into capillaries (Monolith NT.115 Premium capillaries, #MOK025, NanoTemper Technologies GmbH, München, Germany). The samples were analyzed with a Monolith NT.115 pico device using MO.Control Software (both from NanoTemper Technologies GmbH, München, Germany) using nano-blue excitation, LED light adjusted to 60% excitation power, and infrared laser (MST power) set to high. […] The equation is based on the Langmuir binding isotherm. […] Equation (1) is a follows:(1) f(c)=Unbound+(Bound−Unbound)×c+c(target)+Kd−(c+c(target)+Kd)^2−4c×c(target)/2c(target) where f(c) is the fraction bound at a given ligand concentration c. Unbound is either the normalized fluorescence signal (Fnorm; MST mode) or raw fluorescence counts (initial fluorescence mode) of the target alone. Bound is either the normalized fluorescence signal or raw fluorescence counts (initial fluorescence mode) of the melanin–ligand complex. Kd is the dissociation constant or binding affinity, and c (target) is the final concentration of the target in the assay.
The normalized fluorescence is the ratio of relative fluorescence of the selected region after heating (hot region) and relative initial fluorescence before the heating (cold region, i.e., relative fluorescence values before the infrared laser was switched on). The MST traces displaying the changes in the relative fluorescence over time (heating) with the selected hot and cold regions are presented in the Supplementary Materials. In the case of ligand-induced changes in the initial raw fluorescence counts, the raw fluorescence counts prior to the heating were used (initial fluorescence mode). If the ligand-induced fluorescence changes were not observed, the normalized fluorescence signals (MST mode) were used to determine the Kd (for additional information, see the Supplementary Materials). […] Affinity Analysis Software.
Kd determination strategies. The Kd values were tested in both initial fluorescence and the above
described MST modes within the MO Affinity Analysis Software (Fig. S1, Table S1) and the Kd values

Series [5] is described as follows: Prediction of unbound ligand fraction in vivo (human RPE-choroid). The settings on record: class by predicted fraction unbound in vivo, human RPE-choroid. The procedure: (§6) Unbound ligand fractions in vivo were calculated considering melanin binding as the only driver of nonspecific tissue binding.
(§7) Linear regression was used to describe the relationship between the Kd values obtained with the MST and the predicted unbound ligand fractions in human RPE-choroid obtained with calculations described above.
(§8) The Kd values obtained with MST consider only one class of binding site, whereas the Sips isotherm (the traditional binding assay) depicts different binding energies and binding sites. […] This approach is relevant to evaluate the melanin binding.

The subject of series [6] is melanin. The description is as above. The settings on record: human, human RPE-choroid (predicted), 34.8 mg/mL melanin. The protocol:
as §6, §7, §8

Details of series [7]: method as in PMID 26741026, PMID 29859954. The settings on record: from previous studies, ref [11],[16], cited from earlier work.
For series [8] the following is noted: monkeys and humans; ref [10]; cited from earlier work.
The conditions of series [9]: average of the two high binders; 34 compounds in cassette; melanin 3.6 mg/mL; data of Pelkonen et al. [6]. The protocol: as §6
Setting [10] is: 0.5 mg/mL (12.5 µM) melanin nanoparticles, PBS pH 7.4, room temperature, 68% confidence, initial fluorescence mode for compounds marked *, otherwise MST mode, read-out: Kd ± Kd Confidence (MST).
The mark [11] stands for this setting: Table S2, normalized fluorescence, 60% excitation power, read-out: Kd, MST mode (Fnorm).

Where two headings read alike, the source gives them in different places.

`C[C@H]1COc2c(N3CCN(C)CC3)c(F)cc3c(=O)c(C(=O)O)cn1c23` [Levofloxacin]: the “Target Capacity ± SE, traditional method (Sips isotherm)” value in series [1] is 36 ± 5.5 µM. Further, the “n ± SE, traditional method (Sips isotherm)” value in series [1] (heterogeneity index, 1 mg/mL melanin, PBS pH 7.4, 37 °C, 20 h) stood at 0.73 ± 0.02. The “Bmax ± SE, traditional method (Sips isotherm)” value in series [1] (maximum binding capacity, 1 mg/mL melanin, PBS pH 7.4, 37 °C, 20 h) came out at 72 ± 11 nmol/mg. Moreover, the dissociation constant Kd in series [1] (read-out: Kd ± SE, traditional method (Sips isotherm), 1 mg/mL melanin, PBS pH 7.4, 37 °C, 20 h) stood at 157 ± 56 µM; in series [3], 54 µM; in series [4] (setting [10]) it was 46.5 ± 40.1 µM; in [4] (setting [11]), 47 µM. Also, in the series on melanin [2], the unbound share (fraction unbound) at 20 h, 1 µM was 0.28. In addition, in [5], the “Melanin binding class based on traditional assay” value is recorded as “high”. The fraction unbound at 1 µM in the series on melanin [6] is 0.0033.

On to `CC(C)(C)NC[C@H](O)COc1nsnc1N1CCOCC1` [Timolol], for which the dissociation constant (Kd) in series [7] (read-out: Kd ± SE, traditional method (Sips isotherm)) is 120 ± 30 µM; in series [4] (setting [10]), 260 ± 128 µM; in [4] (setting [11]), 260 µM. Also, the “n ± SE, traditional method (Sips isotherm)” value in series [7] (heterogeneity index) was 0.95 ± 0.03. Besides, in series [7] (maximum binding capacity), the “Bmax ± SE, traditional method (Sips isotherm)” value is given as 39 ± 6 nmol/mg. Also, the “Target Capacity ± SE, traditional method (Sips isotherm)” value in series [1] turned out to be 19.5 ± 3 µM. In the series with melanin [2], this molecule registered an unbound share (fraction unbound) at 20 h, 1 µM of 0.71. In series [5], the “Melanin binding class based on traditional assay” value is “intermediate”. Besides, the free fraction (fraction unbound) at 1 µM in the series on melanin [6] was 0.057.

Consider `CC(C)NCC(O)COc1ccc(CCOCC2CC2)cc1` (stereo not drawn) [betaxolol], for which, in series [8], the “concentration in pigmented eye tissues compared to neighboring non-pigmented tissues” value is recorded as 20–150 fold.

Regarding `Clc1ccc2nsnc2c1NC1=NCCN1` [tizanidine], the “unbound fraction in cassette assay compared to single compound incubation” value in series [9] turned out to be 2.1 fold.
